Molecules are shown by their SMILES. pIC50: −log10 of the molar value.

The values that follow come from patent US20230405008A1, “TREATMENT OF HEMATOLOGICAL MALIGNANCIES WITH INHIBITORS OF MENIN” (Kura Oncology, Inc., priority 2020, published 2023).

The test has as its target T1, menin-MLL interaction (Homo sapiens, UniProt O00255).
T1 sequence (O00255 1-610): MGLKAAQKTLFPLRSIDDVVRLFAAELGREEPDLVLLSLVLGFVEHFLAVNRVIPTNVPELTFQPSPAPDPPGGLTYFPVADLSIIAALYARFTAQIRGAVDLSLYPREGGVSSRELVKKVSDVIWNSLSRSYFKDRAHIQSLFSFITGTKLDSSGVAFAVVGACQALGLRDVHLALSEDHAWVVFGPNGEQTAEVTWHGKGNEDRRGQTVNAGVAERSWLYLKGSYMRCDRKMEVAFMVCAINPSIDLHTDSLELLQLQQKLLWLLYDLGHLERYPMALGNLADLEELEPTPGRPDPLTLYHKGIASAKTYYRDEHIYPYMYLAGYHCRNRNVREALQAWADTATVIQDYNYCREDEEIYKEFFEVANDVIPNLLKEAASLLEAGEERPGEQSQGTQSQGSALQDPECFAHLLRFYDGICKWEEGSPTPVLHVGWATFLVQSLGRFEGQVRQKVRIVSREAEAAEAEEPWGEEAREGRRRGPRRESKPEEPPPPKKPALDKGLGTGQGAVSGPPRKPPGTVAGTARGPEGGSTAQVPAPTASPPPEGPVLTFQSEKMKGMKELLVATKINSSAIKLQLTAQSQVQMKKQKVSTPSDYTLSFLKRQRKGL
As to the kind of experiment: Fluorescence polarization (FP) competition assay. In kind it is binding. Conditions: menin / MLL 4-43 peptide. A general note: Fluorescence polarisation rises when a labelled molecule tumbles more slowly, as on binding a larger partner.
The compound `Cc1c(CN2CCC(Nc3ncnc4sc(CC(F)(F)F)cc34)CC2)ccc2c1cc(C#N)n2CCN1CC2(C1)CN(S(C)(=O)=O)C2` [Compound I-57] had a pIC50 of 6.00 to 6.60.
Under `Cc1c(CN2CCC(Nc3ncnc4sc(CC(F)(F)F)cc34)CC2)ccc2c1cc(C#N)n2CCN1CCN(C2CCN(S(C)(=O)=O)C2)CC1` (stereo not shown) [Compound I-52] stands 6.00 to 6.60.
Compound `CS(=O)(=O)Nc1ccc(CN2CCC3(CCN(c4ncnc5sc(CC(F)(F)F)cc45)C3)C2)cc1` (stereo not shown) [III-38] showed a pIC50 of 6.60 to 7.30.
The compound `Cc1c(CN2CCC(Nc3ncnc4sc(CC(F)(F)F)cc34)CC2)ccc2c1cc(C#N)n2CC(C)N1CCC(NS(C)(=O)=O)C1` (stereo not shown) [Compound I-162] showed a pIC50 of 6.60 to 7.30.
Under `Cc1c(CN2CCC(Nc3ncnc4sc(CC(F)(F)F)cc34)CC2)ccc2c1cc(C#N)n2CC(C)C1CCN(S(C)(=O)=O)CC1` (stereo not shown) [Compound I-3] stands 6.00 to 6.60; under `CC[C@H]1CN(C(C)Cn2c(C#N)cc3c(C)c(CN4CCC(Nc5ncnc6sc(CC(F)(F)F)cc56)CC4)ccc32)CCN1S(C)(=O)=O` (stereo partly shown) [Compound I-26], 6.00 to 6.60.
`Cc1c(CN2CCC(Nc3ncnc4sc(CC(F)(F)F)cc34)CC2)ccc2c1cc(C#N)n2CCN1CCC2(CC1)CC(S(C)(=O)=O)C2` [Compound I-54] had a pIC50 of 6.60 to 7.30.
Regarding `CCS(=O)(=O)NC12CC(Cn3c(C#N)cc4c(C)c(CN5CCC(Nc6ncnc7sc(CC(F)(F)F)cc67)CC5)ccc43)(C1)C2` [II-4], the pIC50 was 6.00 to 6.60.
Consider `Cc1c(CN2CCC(Nc3ncnc4sc(CC(F)(F)F)cc34)CC2)ccc2c1cc(C#N)n2CCN1CCC2(CCN(S(C)(=O)=O)C2)C1` (stereo not shown) [Compound I-53], for which the pIC50 is 6.00 to 6.60.
Under `C=CC(=O)Nc1ccc(C(Cn2c(C#N)cc3c(C)c(CN4CCC(Nc5ncnc6sc(CC(F)(F)F)cc56)CC4)ccc32)OC)cc1` (stereo not shown) [Compound I-1] stands 6.00 to 6.60.
In the case of `Cc1c(CN2CCC(Nc3ncnc4sc(CC(F)(F)F)cc34)CC2)ccc2c1cc(C#N)n2C[C@H](C)N1CCN(C(=O)C(F)(F)F)CC1` [Compound I-118] it was 6.00 to 6.60; in that of `Cc1c(CN2CCC3(CCN(c4ncnc5sc(CC(F)(F)F)cc45)C3)C2)ccc2[nH]c(C#N)cc12` (stereo not shown) [III-30a], 6.60 to 7.30.
In turn, `Cc1c(CN2CCC(Nc3ncnc4sc(CC(F)(F)F)cc34)CC2)ccc2c1cc(C#N)n2CCC1CCN(S(C)(=O)=O)C(C)C1` (stereo not shown) [Compound I-59] had a pIC50 of 6.00 to 6.60.
`Cc1c(CN2CCC(Nc3ncnc4sc(CC(F)(F)F)cc34)CC2)ccc2c1cc(C#N)n2CCN1CCN(S(C)(=O)=O)CC1C` (stereo not shown) [Compound I-45]: the negative-log IC50 (pIC50) is 6.00 to 6.60.
In the case of `Cc1c(CN2CCC(Nc3nc(C4CC4)nc4sc(CC(F)(F)F)cc34)CC2)ccc2c1cc(C#N)n2C[C@H](C)N1CCN(S(C)(=O)=O)CC1` [Compound I-173] it was 6.00 to 6.60; in that of `Cc1c(CN2CCC(Nc3ncnc4sc(CC(F)(F)F)cc34)CC2)ccc2c1cc(C#N)n2CCN1CC2(CCN(S(C)(=O)=O)C2)C1` [Compound I-58], 6.00 to 6.60; in that of `Cc1c(CN2CCC(Nc3ncnc4sc(CC(F)(F)F)cc34)CC2)ccc2c1cc(C#N)n2CCN1CC2(CCN(S(C)(=O)=O)CC2)C1` [Compound I-56], 6.00 to 6.60.
Under `Cc1c(CN2CCC(Nc3ncnc4sc(CC(F)(F)F)cc34)CC2)ccc2c1cc(C#N)n2C[C@@H](C)N1CCN(C=O)CC1` [Compound I-67] stands 6.00 to 6.60.
In the case of `Cc1c(CN2CCC(Nc3ncnc4sc(CC(F)(F)F)cc34)CC2)ccc2c1cc(C#N)n2CC(C(C)C)N1CCN(S(C)(=O)=O)CC1` (stereo not shown) [Compound I-24] it was 6.00 to 6.60; in that of `Cc1c(CN2CCC(Nc3ncnc4sc(CC(F)(F)F)cc34)CC2)ccc2c1cc(C#N)n2C[C@H](C)N1CCC(NP(C)(C)=O)CC1` [Compound I-157], 6.00 to 6.60; in that of `Cc1c(CN2CCC(Nc3ncnc4sc(CC(F)(F)F)cc34)CC2)ccc2c1cc(C#N)n2CCN1CC2CN(S(C)(=O)=O)CC2C1` (stereo not shown) [Compound I-55], 6.00 to 6.60.
The compound `Cc1c(CN2CCC(Nc3ncnc4sc(CC(F)(F)F)cc34)CC2)ccc2c1cc(C#N)n2CCN1CC(C)N(S(C)(=O)=O)CC1C` (stereo not shown) [Compound I-44] gave a pIC50 of 6.00 to 6.60.
In the case of `Cc1c(CN2CCC(Nc3ncnc4sc(CC(F)(F)F)cc34)CC2)ccc2c1cc(C#N)n2CC(C)N1CCN(S(C)(=O)=O)C(C(=O)O)C1` (stereo not shown) [Compound I-82], the pIC50 was 6.00 to 6.60.
`CS(=O)(=O)N[C@H]1CC[C@H](CN2CCC3(CCN(c4ncnc5sc(CC(F)(F)F)cc45)C3)C2)CC1` (stereo partly shown) [III-48] showed a negative logarithm of the IC50 (pIC50) of 6.00 to 6.60.
The compound `Cc1c(CN2CCC(Nc3ncnc4sc(CC(F)(F)F)cc34)CC2)ccc2c1cc(C#N)n2CC12CC(NC(=O)C3CCCC(=O)N3)(C1)C2` (stereo not shown) [II-35] gave a negative-log IC50 (pIC50) greater than 7.30.
Under `CNc1nc(NC2CCN(Cc3ccc4c(cc(C#N)n4CCN4CCN(S(C)(=O)=O)[C@H](C#N)C4)c3C)CC2)c2cc(CC(F)(F)F)sc2n1` [Compound I-209] stands greater than 7.30; under `CNS(=O)(=O)N1CCN(C(C)Cn2c(C#N)cc3c(C)c(CN4CCC(Nc5ncnc6sc(CC(F)(F)F)cc56)CC4)ccc32)CC1` (stereo not shown) [Compound I-128], 6.60 to 7.30; under `CNc1nc(NC2CCN(Cc3ccc4c(cc(C#N)n4C[C@H](C)N4CCN(S(=O)(=O)NC)CC4)c3C)CC2)c2cc(CC(F)(F)F)sc2n1` [Compound I-185], 6.60 to 7.30.
In the case of `COc1nc(NC2CCN(Cc3ccc4c(cc(C#N)n4C[C@H](C)N4CCC(S(C)(=O)=O)CC4)c3C)CC2)c2cc(CC(F)(F)F)sc2n1` [Compound I-218] it was greater than 7.30; in that of `Cc1nc(NC2CCN(Cc3ccc4c(cc(C#N)n4C[C@@H](C)N4CCN(S(C)(=O)=O)CC4)c3C)CC2)c2cc(CC(F)(F)F)sc2n1` [Compound I-201], 6.00 to 6.60.
In the case of `CNS(=O)(=O)N1CCN([C@H](C)Cn2c(C#N)cc3c(C)c(CN4CCC(Nc5ncnc6sc(CC(F)(F)F)cc56)CC4)ccc32)CC1` [Compound I-66], the pIC50 was 6.00 to 6.60.

As a reminder, the pIC50 is the IC50 on a negative log10 scale, so that one unit is a factor of ten. Lower therefore signals a large IC50.
